EP0450515B1, “Haloethyl-substituted steroidal enzyme inhibitors” (MERRELL DOW PHARMACEUTICALS INC., priority 1990, dated 1991)

Target: T1, aromatase (Homo sapiens, UniProt P11511)
T1 construct: aromatase preparation, usually 50-800 »g of microsomal protein per ml of assay buffer; from tissue; host or cells: microsomes
T1 sequence (P11511 1-503): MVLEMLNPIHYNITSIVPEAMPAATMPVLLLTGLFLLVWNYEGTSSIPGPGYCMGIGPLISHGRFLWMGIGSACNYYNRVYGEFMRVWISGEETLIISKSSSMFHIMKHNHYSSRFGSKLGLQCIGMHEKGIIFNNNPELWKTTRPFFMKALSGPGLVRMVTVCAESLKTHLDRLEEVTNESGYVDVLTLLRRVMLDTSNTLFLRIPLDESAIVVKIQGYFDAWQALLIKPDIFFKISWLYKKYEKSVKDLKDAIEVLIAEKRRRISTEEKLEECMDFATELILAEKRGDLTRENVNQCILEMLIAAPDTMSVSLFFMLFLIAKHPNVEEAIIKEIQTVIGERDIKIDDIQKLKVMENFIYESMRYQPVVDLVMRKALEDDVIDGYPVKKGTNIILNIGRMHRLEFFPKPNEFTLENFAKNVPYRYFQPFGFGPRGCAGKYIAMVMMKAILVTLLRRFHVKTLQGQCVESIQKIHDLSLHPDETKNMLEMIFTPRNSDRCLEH
Assay: time-dependent aromatase inhibition assay (preincubation of inhibitor with enzyme, Kitz-Wilson analysis)
Format: biochemical
Conditions: for τ50: half-time of inactivation at infinite inhibitor concentration, Kitz-Wilson plots, time-dependent assay; for kinact/KI: ratio of kcat/Ki (inactivation), index of efficiency of enzyme inactivation
Procedure: In this assay, the inhibitor is preincubated with enzyme prior to assaying for activity in the presence of high substrate levels. A time-related decrease in enzyme activity can be indicative of irreversible binding of the inhibitor with the enzyme.
In the time-dependent assay, an amount of the enzyme inhibitor in 100 »l of the assay buffer described above which will provide assay concentrations which are usually between 1 nM and 10 »M are added to 35 ml centrifuge tubes containing 600 »l of the NADPH generating system. The pre-incubation is started by the addition of 700 »l of aromatase preparation, usually 50-800 »g of microsomal protein per ml of assay buffer. These preparations are mixed using a vortex mixer and incubated for 0, 5, 10, or 20 minutes at 25°C. Then 100 »l of androstenedione (∼6.8 »M) containing 1β-³H androstenedione in assay buffer is added to provide an assay concentration of substrate (0.50 »M) which is at least ten times the Km of androstenedione (0.04 »M). Following vortexing, the enzyme incubation is continued for 10 minutes before being terminated by the addition of chloroform. The amount of radioactivity in the aqueous fraction is determined by scintillation procedures. The enzymatic activity for each concentration of inhibitor at each time period of preincubation is calculated as a percent of the respective vehicle control which is arbitrarily set at 100%. Therefore, the relative present enzyme inhibition is expressed as a percentage: (100 percent minus percent enzyme activity with inhibitor present).
Enzyme kinetic analysis utilized Kitz-Wilson plots for time-dependent assays. These analyses provide estimates of apparent Ki of inactivation which represents the inhibitor concentration required to produce half-maximal rate of enzyme inactivation. The pseudo first-order rate constant for enzyme inactivation (kcat) and the half-time of inactivation (τ₅₀) of infinite inhibitor concentrations were determined.

Row | Structure (SMILES) | Ki [nM] | τ50 [min] | kinact/KI [M⁻¹ s⁻¹]
1 | C[C@]12CC[C@H]3[C@@H](CCC4=CC(=O)CC[C@@]43C(O)CBr)[C@@H]1CCC2=O (single isomer, unassigned; diastereomer 10) [HOCHCH₂Br pure (R) diastereomer, 10-(2-Bromo-1-hydroxyethyl)-estr-4-ene-3,17-dione] | 26 | 4.85 | –
2 | C[C@]12CC[C@H]3[C@@H](CCC4=CC(=O)CC[C@@]43C(O)CBr)[C@@H]1CCC2=O (stereo partly drawn) [HOCHCH₂Br (S):(R)::9:1, 10-(2-Bromo-1-hydroxyethyl)-estr-4-ene-3,17-dione] | 1130 | 5.33 | –
3 | C[C@]12CC[C@H]3[C@@H](CCC4=CC(=O)CC[C@@]43C(O)CCl)[C@@H]1CCC2=O (stereo partly drawn) [HOCHCH₂Cl (R):(S)::9:1, 10-(2-Chloro-1-hydroxyethyl)-estr-4-ene-3,17-dione] | 63 | 3.60 | 50700
4 | C[C@]12CC[C@H]3[C@@H](CCC4=CC(=O)CC[C@@]43C(O)CI)[C@@H]1CCC2=O (stereo partly drawn) [HOCHCH₂I (R):(S)::9:1, 10-(2-Iodo-1-hydroxyethyl)-estr-4-ene-3,17-dione] | 11 | 2.22 | 490000
5 | C[C@]12CC[C@H]3[C@@H](CCC4=CC(=O)CC[C@@]43C(=O)CBr)[C@@H]1CCC2=O [O=CCH₂Br, 10-(2-Bromoacetyl)-estr-4-ene-3,17-dione] | 190 | 32.7 | 1860
